From US11884649B2, “IRE1α inhibitors and uses thereof” (The Regents of the University of California, priority 2020, dated 2024)

How the values were obtained:
[1] = tested on: RIDD (IRE1α-dependent mRNA decay); assay: Real-time PCR of RIDD mRNA targets in INS-1 cells overexpressing IRE1α (Dox); format: cell-based, rat; conditions: 20 μM, 5 ng/mL Dox
Description: RNA Isolation, Quantitative Real-Time PCR, and Primers
INS-1 or isogenic IRE1α-overexpressing INS-1 cells were plated onto Poly-D-Lysine coated tissue culture plate and grown for 48 hrs. Inhibitors or DMSO were added to the media and incubated for 1 hour at 37° C. with 5% CO2 prior to addition of ER stress agents or Dox as indicated. RNA was isolated from whole cells using either QIAGEN RNeasy Mini kits or Trizol (Invitrogen) and reverse transcribed as above to obtain total cDNA. Then, XBP-1 primers were used to amplify an XBP-1 amplicon spanning the 26 nt intron from the cDNA samples in a regular 3-step PCR. Thermal cycles were: 5 min at 95° C., 30 cycles of 30 s at 95° C., 30 s at 60° C., and 1 min at 72° C., followed by 72° C. for 15 min, and hold at 4° C. Primers used for XBP-1 mRNA splicing were as follows: sense primer XBP1.3 S (5′ […]-3′ (SEQ ID NO:2)) and antisense primer XBP1.2AS (5′-[…]-3′ (SEQ ID NO:3)). PCR fragments were then digested by PstI, resolved on 3% agarose gels, stained with EtBr and quantified by densitometry using ImageJ (NIH). For standard mRNA detection, generally […] total RNA was reverse transcribed using the QuantiTect Reverse Transcription Kit (QIAGEN). For qPCR, we used SYBR green (QIAGEN) and StepOnePlus Real-Time PCR System (Applied Biosystems). Thermal cycles were: 5 min at 95° C., 40 cycles of 15 sec at 95° C., 30 sec at 60° C. Gene expression levels were normalized to Beta Actin. Primers used for qPCR of RIDD targets were as follows: Beta Actin Fwd: 5′-[…]-3′ (SEQ ID NO:4), Beta Actin Rev: 5′-[…]-3′ (SEQ ID NO:5), Insulin 1 Fwd: 5′-GTCCTCTGGGAGCCCAAG-3′ (SEQ ID NO:6), Insulin 1 Rev: 5′-ACAGAGCCTCCACCAGG-3′ (SEQ ID NO:7), Insulin 2 Fwd: 5′-ATCCTCTGGGAGCCCCGC-3′ (SEQ ID NO:8), Insulin 2 Rev: 5′-AGAGAGCTTCCACCAAG-3′ (SEQ ID NO:9), Blos1 Fwd: 5′-[…]-3′ (SEQ ID NO:10), and Blos1 Rev: 5′-[…]-3′ (SEQ ID NO:11).
Real-Time PCR (Q-PCR) used SYBR green and Step OnePlus Real-Time PCR System (Applied Biosystems). Thermal cycles were: 5 min at 95° C., 40 cycles of 15 s at 95° C., 30 s at 60° C. Gene expression levels were normalized to GAPDH. Q-PCR Sense/antisense primers used: Rat GAPDH, 5′-[…]-3′ (SEQ ID NO:14) and 5′-[…]-3′ (SEQ ID NO:15); Rat Ins1, 5′-GTCCTCTGGGAGCCCAAG-3′ (SEQ ID NO:6) and 5′-ACAGAGCCTCCACCAGG-3′ (SEQ ID NO:7); Rat Pdia4, 5′-CGTCTCGCCCTGATTCGT-3′ (SEQ ID NO:16) and 5′-[…]-3′ (SEQ ID NO:17); Rat Blos1, 5′-[…]-3′ (SEQ ID NO:18) and 5′-TGTCCAGTTCGATGCTCCG-3′ (SEQ ID NO:19).
Real-time PCR for FIGS. 34A-34F: Real-Time PCR (Q-PCR) used SYBR green and Step OnePlus Real-Time PCR System (Applied Biosystems). Thermal cycles were: 5 min at 95° C., 40 cycles of 15 s at 95° C., 30 s at 60° C. Gene expression levels were normalized to GAPDH. Q-PCR Sense/antisense primers used: Rat GAPDH, 5′-[…]-3′ (SEQ ID NO:20) and 5′-[…]-3′ (SEQ ID NO:21); Rat Ins1, 5′-GTCCTCTGGGAGCCCAAG-3′ (SEQ ID NO:6) and 5′-ACAGAGCCTCCACCAGG-3′ (SEQ ID NO:7); Rat Ins2, 5′-ATCCTCTGGGAGCCCCGC-3′ (SEQ ID NO:8) and 5′-AGAGAGCTTCCACCAAG-3′ (SEQ ID NO:9); Rat Pdia4, 5′-[…]-3′(SEQ ID NO:22) and 5′-[…]-3′ (SEQ ID NO:23); Rat Blos1, 5′-[…]-3′ (SEQ ID NO:18) and 5′-TGTCCAGTTCGATGCTCCG-3′ (SEQ ID NO:19).

[2] = tested on: INS-1 cells expressing IRE1α under Dox control; assay: Apoptosis in IRE1α-overexpressing INS-1 cells (cleaved caspase 3 immunoblot, Annexin V staining); format: cell-based, rat; conditions: 20 μM, 5 ng/mL Dox
Description: Western Blotting and Antibodies
For protein analysis, cells were lysed into modified RIPA buffer (50 mM Tris, 150 mM NaCl, 10 mM NaF, 1% NP40 (v/v), 0.25% sodium deoxycholate (w/v), 5% glycerol (v/v), pH 7.8) containing protease inhibitor (Pierce Protease Inhibitor Tablets and 1 mM PMSF) and phosphatase inhibitor (Phosphatase inhibitor cocktail 2 and 3, Sigma Aldrich) prior to gel loading. Western blots were performed using Any kD™ Mini-PROTEAN® TGX™ Precast protein gels (BioRad). Gels were ran using Tris-Glycine running buffer (25 mM Tris pH 8.6, 192 mM glycine, 0.1% SDS (w/v)) at 180 V. Gels were transferred to nitrocellulose paper using the TransBlot Turbo System (BioRad) at 25 V, 2.5 A for 15 minutes. Nitrocellulose blots were blocked for 30 minutes at room temperature with Odyssey blocking buffer (Li-Cor). Primary antibodies were diluted into blocking buffer and incubated over night at 4° C. Blots were washed 2× with TBST (20 mM Tris pH 7.5, 150 mM NaCl, 0.1% Tween-20) and incubated with near-infrared-dye-conjugated secondary antibodies (Li-Cor) for 1 hour at room temperature. Blots were imaged using a Li-Cor Odyssey IR Imager and quantitated using ImageStudio. The following primary antibodies were used in this study: rabbit anti-IRE1α mAb #14C10 (Cell Signaling, no. 3294), mouse anti-FLAG (DYKDDDDK (SEQ ID NO:24) mAb (Sigma Aldrich, no. F3165), rabbit anti-spliced XBP1 (Cell Signaling, no. 12782), rabbit anti-caspase 3 (Cell Signaling, no. 9662), rabbit anti-cleaved caspase 3 (Cell Signaling, no. 9661), mouse anti-proinsulin (Santa Cruz Biotechnology, no. sc-9168), and rabbit anti-GAPDH (Santa Cruz Biotechnology, no. sc-25778).
For assaying apoptosis by Annexin V staining, cells were plated in 12-well plates overnight. Cells were then treated with various reagents for indicated time periods. On the day of flow cytometry analysis, cells were trypsinized and washed in PBS and resuspended in Annexin V binding buffer with Annexin-V FITC (BD Pharmingen™). Flow cytometry was performed on a Becton Dickinson LSRII flow cytometer.

SMILES: O=S(=O)(CCC(F)(F)F)Nc1ccc(Oc2ncccc2-c2ccnc(NC3CCCNC3)n2)c2ccccc12 (stereo not drawn) [KIRA9, 3,3,3-trifluoro-N-(4-(3-(2-(piperidin-3-ylamino)pyrimidin-4-yl)pyridin-2-yloxy)naphthalen-1-yl)propane-1-sulfonamide]
- mRNA decay substrates Blos1, Ins1 and Ins2 [1]: rescued
- Annexin-V positivity (mitochondrial apoptosis assay) [2]: significant cytoprotective efficacy
- generation of cleaved caspase 3 [2]: markedly reduced

SMILES: O=S(=O)(CC(F)(F)F)Nc1ccc(Oc2ncccc2-c2ccnc(N[C@H]3CCCNC3)n2)c2ccccc12 (stereo in doubt) [PAIR1, 2,2,2-trifluoro-N-(4-(3-(2-(piperidin-3-ylamino)pyrimidin-4-yl)pyridin-2-yloxy)naphthalen-1-yl)ethanesulfonamide]
- mRNA decay substrates Blos1, Ins1 and Ins2 [1]: rescued
- Annexin-V positivity (mitochondrial apoptosis assay) [2]: significant cytoprotective efficacy
- generation of cleaved caspase 3 [2]: markedly reduced
